Reference: patent publication US20200330400A1, “METHODS FOR THE TREATMENT OF CANCER USING COENZYME Q10 AND FATTY ACID METABOLISM INHIBITORS” (Berg LLC, priority 2016, published 2020)

Experiments:
[1] = system: MIA PaCa-2 pancreatic cancer cells; test: Cell viability of MIA PaCa-2 pancreatic cancer cells exposed to Coenzyme Q10 alone or with fatty acid metabolism inhibitors; format: cell-based; conditions: for Sensitivity of cells to Coenzyme Q10 when treated in combination (reduced viability): co-treatment with named agent
Description: Cell viability was next assessed in MIA PaCa-2 pancreatic cancer cells exposed to Coenzyme Q10 alone or in combination with the fatty acid metabolism inhibitors C75, etomoxir, trimetazidine, metformin, and the Stearoyl-CoA desaturase-1 (SCD-1) inhibitor A939572. […] SCD-1 is an endoplasmic reticulum enzyme that catalyzes the formation of the monounsaturated fatty acids oleic acid and palmitoleic acid from stearoyl-CoA and palmitoyl-CoA. Oleic acid and palmitoleic acid are major components of membrane phospholipids, cholesterol esters and alkyl-diacylglycerol. Thus SCD-1 is a key enzyme in fatty acid metabolism. Inhibition of SCD-1 results in depletion of mono-unsaturated fatty acids and reduction of lipid storage.

[2] = system: MDA-MB231 breast cancer cells; test: Cell viability of MDA-MB231 breast cancer cells exposed to Coenzyme Q10 alone or with fatty acid metabolism inhibitors; format: cell-based, human; conditions: for Sensitivity of cells to Coenzyme Q10 when treated in combination (shift of Coenzyme Q10 dose-response curve): MDA-MB231, co-treatment with named agent
Protocol: (§1) Cell viability was assessed in MDA-MB231 and SkBr-3 breast cancer cells exposed to Coenzyme Q10 alone or in combination with the fatty acid metabolism inhibitors C75, etomoxir, and trimetazidine, as well as a more pleiotropic fatty acid metabolism modulator, metformin. […] Metformin is used clinically as an anti-diabetic agent to suppress glucose production by the liver; however, the mechanism of action remains incompletely understood.
(§2) Coenzyme Q10 was applied to the cells in a 4% Coenzyme Q10 nanosuspension formulation (as described in WO 2011/112900, the entire contents of which are expressly incorporated herein by reference) comprising a phosphatidylcholine (e.g., dimyristoylphosphatidyl choline (DMPC)).

[3] = system: SKBr-3 breast cancer cells; test: Cell viability of SKBr-3 breast cancer cells exposed to Coenzyme Q10 alone or with fatty acid metabolism inhibitors; format: cell-based; conditions: for Sensitivity of cells to Coenzyme Q10 when treated in combination (shift of Coenzyme Q10 dose-response curve): SkBr-3, co-treatment with named agent
Protocol: as §1, §2

[4] = system: fatty acid metabolism genes FASN, CPT1, ACSL1 and DGAT1; test: mRNA expression of fatty acid metabolism genes in MDA-MB231 cells treated with Coenzyme Q10; format: cell-based, human; conditions: Coenzyme Q10 alone
Description: FASN catalyzes the synthesis of the fatty acid palmitate (C16:0, a long-chain saturated fatty acid) from acetyl-CoA and malonyl-CoA, in the presence of NADPH. CPT-1 is a mitochondrial enzyme responsible for the formation of acyl carnitines by catalyzing the transfer of the acyl group of a long-chain fatty acyl-CoA from coenzyme A to l-carnitine. CPT-1 mediated formation of acyl carnitine allows for subsequent movement of the acyl carnitine from the cytosol into the intermembrane space of mitochondria. ACSL1 activates the degradation of complex fatty acids. Specifically, this enzyme catalyzes the formation of fatty acyl-CoA by a two-step process proceeding through an adenylated intermediate. DGAT1 catalyzes the formation of triglycerides from diacylglycerol and Acyl-CoA. The reaction catalyzed by DGAT is considered the terminal and only committed step in triglyceride synthesis and to be essential for the formation of adipose tissue.

[5] = system: MDA-MB231 breast cancer cells; test: Free glycerol, DAG and TAG content in MDA-MB231 cells treated with Coenzyme Q10; format: cell-based, human; conditions: Coenzyme Q10 treatment
Description: FIGS. 6B and 6C show diacylglyceride (DAG) (B), and triacylglyceride (TAG) content (C) in MDA-MB231 breast cancer cells treated with Coenzyme Q10.
To further evaluate the effect of Coenzyme Q10 on cancer cell lipid composition, structural lipidomic analysis was used to assess the metabolic fate of the lipid components of the Coenzyme Q10 formulation itself, such as DMPC. DMPC is a 14:0 lipid which is not found endogenously in human cells. Accordingly, it was possible to distinguish between DMPC-containing species based on the length of the fatty acid chains, e.g. 28:0 DAG and 42:0 TAG are not found endogenously. […] Accordingly, cancer cells treated with lipid-containing formulations may be especially sensitive to fatty acid metabolism inhibitors, due to the increased fatty acid metabolism activity resulting from storage and degradation of the lipid formulation components.

SMILES	Sensitivity of cells to Coenzyme Q10 when treated in combination (reduced viability) [1]	Sensitivity of cells to Coenzyme Q10 when treated in combination (shift of Coenzyme Q10 dose-response curve) [2]	Sensitivity of cells to Coenzyme Q10 when treated in combination (shift of Coenzyme Q10 dose-response curve) [3]	further results
CNC(=O)c1cccc(NC(=O)N2CCC(Oc3ccccc3Cl)CC2)c1 [A939572]	more sensitive to Coenzyme Q10			
CCOC(=O)C1(CCCCCCOc2ccc(Cl)cc2)CO1 (stereo not shown) [Etomoxir, 2-(6-(4-chlorophenoxy)-hexyl)-oxirane-2-carboxylic acid ethyl ester]	more sensitive to Coenzyme Q10	more sensitive to Coenzyme Q10	more sensitive to Coenzyme Q10	
CN(C)C(=N)N=C(N)N [Metformin]	more sensitive to Coenzyme Q10	did not alter cytotoxic responses to Coenzyme Q10	did not alter cytotoxic responses to Coenzyme Q10	Cell viability ([1]; Coenzyme Q10 and 0.5 mM metformin): lower viability than cells treated with Coenzyme Q10 alone; Cell viability ([1]; Coenzyme Q10 and 1 mM or 5 mM metformin): lower viability than cells treated with Coenzyme Q10 and 0.5 mM metformin
COC1=C(OC)C(=O)C(C/C=C(\C)CC/C=C(\C)CC/C=C(\C)CC/C=C(\C)CC/C=C(\C)CC/C=C(\C)CC/C=C(\C)CC/C=C(\C)CC/C=C(\C)CCC=C(C)C)=C(C)C1=O [Coenzyme Q10]				EC50 ([2]; EC50 of Coenzyme Q10 (4% nanosuspension) alone or plus named inhibitor, inhibitor concentration not in table (FIGS. 1-4: C75 5 μM, Etomoxir 50 μM, Trimetazidine 375 μM, metformin 500 μM)): 165 µM; mRNA expression of FASN, CPT-1, ACSL1 and DGAT1 [4]: dose- and time-dependent increase in mRNA expression; EC50 ([1]; Coenzyme Q10 alone (A939572 experiment, FIG. 10)): 142 µM; EC50 ([1]; Coenzyme Q10 alone (metformin experiment, FIG. 8)): 261 µM; EC50 ([1]; Coenzyme Q10 alone or with Etomoxir 100 μM, C75 10 μM or Trimetazidine 250 μM (FIG. 9)): 284 µM; EC50 ([3]; EC50 of Coenzyme Q10 (4% nanosuspension) alone or plus named inhibitor, inhibitor concentration not in table): 599 µM; Diacylglyceride (DAG), triacylglyceride (TAG) and glycerol content [5]: accumulation of diacylglyceride (DAG), triacylglyceride (TAG) and the triglyceride backbone, glycerol
C=C1C(=O)OC(CCCCCCCC)C1C(=O)O (stereo not shown) [C75]	more sensitive to Coenzyme Q10	more sensitive to Coenzyme Q10	more sensitive to Coenzyme Q10	
COc1ccc(CN2CCNCC2)c(OC)c1OC [Trimetazidine]	more sensitive to Coenzyme Q10	more sensitive to Coenzyme Q10	more sensitive to Coenzyme Q10	
